In patent US20230279016A1, “Tetrahydropyrazolopyrimidines and Related Analogs for Inhibiting YAP/TAZ-TEAD” (THE KATHOLIEKE UNIVERSITEIT LEUVEN, priority 2021, published 2023):

System: YAP/TAZ-TEAD transcription
Assay: Reporter gene assay for measuring the inhibition of YAP/TAZ-TEAD transcription (TEAD-responsive element luciferase reporter in Hek293T cells)
Assay type: cell-based
Conditions: Hek293T cells transiently transfected with TEAD-responsive element luciferase reporter, 24 hours incubation
Experimental: Hek293T cells are cultured in DMEM supplemented with 10% fetal bovine serum, Sodium pyruvate, Sodium bicarbonate, L-glutamine. The cells are harvested and transiently transfected with TEAD-responsive element luciferase reporter. Transfected cells are plated in 384-wells plate containing pre-diluted compounds. After 24 hours incubation at 37° C./5%CO2, assay plates were cooled down to RT and levelled to an equal volume per well, prior to the addition of 25 uL luciferase substrate SteadyLite (Perkin Elmer)/well. The plate was shaken for 10 min at 600 rpm, centrifuged for 1min at 500 rpm and measured with an Envision reader (PerkinElmer). The amount of relative light units produced by the TEAD reporter is used to calculated percent of inhibition.
The percent of reporter inhibition was calculated in the presence of a positive control inhibitor (100% inhibition) versus a condition with the presence of the vehicle basal activity of the reporter (0% inhibition). The ability of a test compound to inhibit this activity was determined as:
Percentage inhibition=[1-((RLU determined in the presence of vehicle—RLU determined for sample with test compound present) divided by (RLU determined in the presence of vehicle — RLU determined for sample with positive control inhibitor))] * 100
The activities of the example compounds tested are depicted in the table below. The activity ranges A, B and C refer to EC50 values in the reporter gene assay as described as follows: “A”: EC50 <1 μM; “B” : 1 μM≤EC50≤20 μM and “C” : EC50>20 μM, NT=not tested.

SMILES | EC50 [nM]
C=CC(=O)NCC1CN(c2ccc(C(F)(F)F)cc2)c2ccnn2C1 (single isomer, unassigned) [Cpd. No. 002-En2, (R)- or (S)-N-((4-(4-(trifluoromethyl)phenyl)-4,5,6,7-tetrahydropyrazolo[1,5-a]pyrimidin-6-yl)methyl)acrylamide] | < 1000
C=CC(=O)NCC1CN(c2cccc(F)c2)c2ccnn2C1 (single isomer, unassigned) [Cpd. No. 004-En1, (R)- or (S)-N-((4-(3-fluorophenyl)-4,5,6,7-tetrahydropyrazolo[1,5-a]pyrimidin-6-yl)methyl)acrylamide] | 1000 to 20000
C=CC(=O)NCC1CN(c2cccc(F)c2)c2ccnn2C1 (single isomer, unassigned) [Cpd. No. 004-En2, (R)- or (S)-N-((4-(3-fluorophenyl)-4,5,6,7-tetrahydropyrazolo[1,5-a]pyrimidin-6-yl)methyl)acrylamide] | < 1000
C=CC(=O)NCC1CN(c2ccc(Cl)cc2)c2ccnn2C1 (single isomer, unassigned) [Cpd. No. 005-En1, (R)- or (S)-N-((4-(4-chlorophenyl)-4,5,6,7-tetrahydropyrazolo[1,5-a]pyrimidin-6-yl)methyl)acrylamide] | < 1000
C=CC(=O)NCC1CN(c2ccc(C(F)F)cc2)c2ccnn2C1 (single isomer, unassigned) [Cpd. No. 009-En2, (R)- or (S)-N-((4-(4-(difluoromethyl)phenyl)-4,5,6,7-tetrahydropyrazolo[1,5-a]pyrimidin-6-yl)methyl)acrylamide] | < 1000
C=CC(=O)NCC1CN(c2ccc(C(F)(F)F)c(F)c2)c2ccnn2C1 (single isomer, unassigned) [Cpd. No. 015-En1, (R)- or (S)-N-((4-(3-fluoro-4-(trifluoromethyl)phenyl)-4,5,6,7-tetrahydropyrazolo[1,5-a]pyrimidin-6-yl)methyl)acrylamide] | < 1000
C=CC(=O)NCC1CN(c2ccc(C(F)(F)F)c(F)c2)c2ccnn2C1 (single isomer, unassigned) [Cpd. No. 015-En2, (R)- or (S)-N-((4-(3-fluoro-4-(trifluoromethyl)phenyl)-4,5,6,7-tetrahydropyrazolo[1,5-a]pyrimidin-6-yl)methyl)acrylamide] | < 1000
C=CC(=O)NCC1CN(c2ccn(C)c(=O)c2)c2ccnn2C1 (single isomer, unassigned) [Cpd. No. 024-En2, (R)- or (S)-N-((4-(1-methyl-2-oxo-1,2-dihydropyridin-4-yl)-4,5,6,7-tetrahydropyrazolo[1,5-a]pyrimidin-6-yl)methyl)acrylamide] | > 20000
CCC(=O)NCC1CN(c2ccc(C(F)(F)F)cc2)c2ccnn2C1 (single isomer, unassigned) [Cpd. No. 028-En1, (R)- or (S)-N-((4-(4-(trifluoromethyl)phenyl)-4,5,6,7-tetrahydropyrazolo[1,5-a]pyrimidin-6-yl)methyl)propionamide] | > 20000

Further lines, results first:

EC50 [nM] | SMILES
< 1000 | C=CC(=O)NCC1CN(c2ccc(C(F)(F)F)cc2)c2ccnn2C1 (single isomer, unassigned) [Cpd. No. 002-En1, (R)- or (S)-N-((4-(4-(trifluoromethyl)phenyl)-4,5,6,7-tetrahydropyrazolo[1,5-a]pyrimidin-6-yl)methyl)acrylamide]
< 1000 | C=CC(=O)NCC1CN(c2ccc(Cl)cc2)c2ccnn2C1 (single isomer, unassigned) [Cpd. No. 005-En2, (R)- or (S)-N-((4-(4-chlorophenyl)-4,5,6,7-tetrahydropyrazolo[1,5-a]pyrimidin-6-yl)methyl)acrylamide]
1000 to 20000 | C=CC(=O)NCC1CN(c2ccc(F)cc2)c2ccnn2C1 (single isomer, unassigned) [Cpd. No. 006-En1, (R)- or (S)-N-((4-(4-fluorophenyl)-4,5,6,7-tetrahydropyrazolo[1,5-a]pyrimidin-6-yl)methyl)acrylamide]
< 1000 | C=CC(=O)NCC1CN(c2ccc(F)cc2)c2ccnn2C1 (single isomer, unassigned) [Cpd. No. 006-En2, (R)- or (S)-N-((4-(4-fluorophenyl)-4,5,6,7-tetrahydropyrazolo[1,5-a]pyrimidin-6-yl)methyl)acrylamide]
1000 to 20000 | C=CC(=O)NCC1CN(c2ccc(C(F)F)cc2)c2ccnn2C1 (single isomer, unassigned) [Cpd. No. 009-En1, (R)- or (S)-N-((4-(4-(difluoromethyl)phenyl)-4,5,6,7-tetrahydropyrazolo[1,5-a]pyrimidin-6-yl)methyl)acrylamide]
> 20000 | C=CC(=O)NCC1CN(c2ccc(C(F)F)nc2)c2ccnn2C1 (single isomer, unassigned) [Cpd. No. 010-En1, (R)- or (S)-N-((4-(6-(difluoromethyl)pyridin-3-yl)-4,5,6,7-tetrahydropyrazolo[1,5-a]pyrimidin-6-yl)methyl)acrylamide]
< 1000 | C=CC(=O)NCC1CN(c2ccc(C(F)F)nc2)c2ccnn2C1 (single isomer, unassigned) [Cpd. No. 010-En2, (R)- or (S)-N-((4-(6-(difluoromethyl)pyridin-3-yl)-4,5,6,7-tetrahydropyrazolo[1,5-a]pyrimidin-6-yl)methyl)acrylamide]
> 20000 | C=CC(=O)NCC1CN(c2ccc(-c3ccccc3)cc2)c2ccnn2C1 (single isomer, unassigned) [Cpd. No. 017-En1, (R)- or (S)-N-((4-([1,1′-biphenyl]-4-yl)-4,5,6,7-tetrahydropyrazolo[1,5-a]pyrimidin-6-yl)methyl)acrylamide]
< 1000 | C=CC(=O)NCC1CN(c2ccc(-c3ccccc3)cc2)c2ccnn2C1 (single isomer, unassigned) [Cpd. No. 017-En2, (R)- or (S)-N-((4-([1,1′-biphenyl]-4-yl)-4,5,6,7-tetrahydropyrazolo[1,5-a]pyrimidin-6-yl)methyl)acrylamide]
1000 to 20000 | C=CC(=O)NCC1CN(c2ccc3scnc3c2)c2ccnn2C1 (single isomer, unassigned) [Cpd. No. 026-En2, (R)- or (S)-N-((4-(benzo[d]thiazol-5-yl)-4,5,6,7-tetrahydropyrazolo[1,5-a]pyrimidin-6-yl)methyl)acrylamide]
< 1000 | CCC(=O)NCC1CN(c2ccc(C(F)(F)F)cc2)c2ccnn2C1 (single isomer, unassigned) [Cpd. No. 028-En2, (R)- or (S)-N-((4-(4-(trifluoromethyl)phenyl)-4,5,6,7-tetrahydropyrazolo[1,5-a]pyrimidin-6-yl)methyl)propionamide]

Same assay, conditions: Homo sapiens, HEK-293T, 24 h, Hek293T cells transiently transfected with TEAD-responsive element luciferase reporter, 24 hours incubation

EC50 [nM] | SMILES
< 1000 | C=CC(=O)NCC1CN(c2ccc(Br)cc2)c2ccnn2C1 (single isomer, unassigned) [Cpd. No. 021-En1, (R)- or (S)-N-((4-(4-bromophenyl)-4,5,6,7-tetrahydropyrazolo[1,5-a]pyrimidin-6-yl)methyl)acrylamide]
> 20000 | C=CC(=O)NCC1CN(c2ccn(C)c(=O)c2)c2ccnn2C1 (single isomer, unassigned) [Cpd. No. 024-En1, (R)- or (S)-N-((4-(1-methyl-2-oxo-1,2-dihydropyridin-4-yl)-4,5,6,7-tetrahydropyrazolo[1,5-a]pyrimidin-6-yl)methyl)acrylamide]
1000 to 20000 | C=CC(=O)NCC1CN(c2ccc3scnc3c2)c2ccnn2C1 (single isomer, unassigned) [Cpd. No. 026-En1, (R)- or (S)-N-((4-(benzo[d]thiazol-5-yl)-4,5,6,7-tetrahydropyrazolo[1,5-a]pyrimidin-6-yl)methyl)acrylamide]
